Laboratory results published in PMC10052652 (Molecules, 2023).
Read-outs that look alike come from different tables or passages of the source.

How the values were obtained:
[1] = DPPH radical scavenging assay
Experimental: DPPH• (1-1-diphenyl 2-picryl hydrazyl) assay
This method is based on the spectrophotometric assay using the stable radical, DPPH•, as a reagent. First, 20 µL of each sample (4 mg/mL) was mixed with 180 µL of 0.1 mM DPPH• in methanol, in plates, after an incubation of 25 min in the dark. Absorbance was measured at 517 nm. Ascorbic acid was used as the reference compound. The radical-scavenging activities of molecules, expressed as a percentage inhibition of DPPH•, were calculated according to the following formula: Inhibition (%) = [(A control − A sample)/A control] × 100 where A is the absorbance determined at 517 nm. The absorbance of the solvent and DPPH• radical without the molecule was measured as the control.

HCT116 cells = experiment: Cytotoxic activity, MTT assay, HCT116; type: cell-based, human; details: Homo sapiens, HCT-116, 72 h, read-out: IC50 HCT116, MTT, 72 h
Experimental: (§1) The cancer cell lines used in this study were HCT116 (colorectal carcinoma), IGROV1 (ovarian cancer), OVCAR3 (ovarian cancer), and MCF7 (mammary gland/breast cancer). […] Cell lines were maintained in culture and were incubated at 37 °C in an incubator with 5% CO2 in a humidified atmosphere. All tests were established at 80% of confluence, and viability was estimated with a trypan blue exclusion assay.
(§2) The cytotoxic activities of molecules against cancer cell lines were evaluated using an MTT assay. The MTT colorimetric assay was performed using 96-well plates. Cells were seeded in a 96-well plate, at a concentration of 10 × 10^3 cells/well for HCT116 and 12 × 10^3 cells/well for MCF7, IGROV1, and OVAR. Adherent cells were dispatched and incubated at 37 °C overnight in a 5% CO2-enriched atmosphere. […] After that, the medium was removed, and cells were treated with 50 µL of 3-(4,5-dimethylthazolk-2-yl)-2,5-diphenyl tetrazolium bromide (MTT) solution (3 mg/mL in PBS) at 37 °C for 20 to 40 min. To dissolve the […], we added 80 µL of 100% DMSO. Optical density was measured at 540 nm. All tests were established in triplicate. […]

[2] = target: T1, acetylcholinesterase (AChE) (Homo sapiens, UniProt P22303); type: biochemical; details: at 100 µM
T1 sequence (P22303 32-614, species assumed): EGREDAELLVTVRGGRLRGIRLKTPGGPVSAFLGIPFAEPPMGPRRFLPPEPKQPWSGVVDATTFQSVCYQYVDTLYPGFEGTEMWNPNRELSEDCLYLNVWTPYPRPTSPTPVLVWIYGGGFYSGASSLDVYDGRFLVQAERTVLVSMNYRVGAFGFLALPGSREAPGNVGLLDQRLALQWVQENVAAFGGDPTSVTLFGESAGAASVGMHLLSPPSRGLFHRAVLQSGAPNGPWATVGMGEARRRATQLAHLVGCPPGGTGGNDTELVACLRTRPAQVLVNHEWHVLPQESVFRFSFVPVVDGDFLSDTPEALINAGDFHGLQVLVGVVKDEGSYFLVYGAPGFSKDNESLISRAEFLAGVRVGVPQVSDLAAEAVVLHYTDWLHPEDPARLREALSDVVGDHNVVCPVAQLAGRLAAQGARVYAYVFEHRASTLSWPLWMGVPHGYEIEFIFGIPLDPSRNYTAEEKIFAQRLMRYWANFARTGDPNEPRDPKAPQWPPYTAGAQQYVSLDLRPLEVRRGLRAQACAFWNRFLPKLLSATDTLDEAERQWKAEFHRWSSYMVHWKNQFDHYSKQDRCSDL

MCF7 cells = experiment: Cytotoxic activity, MTT assay, MCF7; type: cell-based, human; details: Homo sapiens, MCF7, 72 h
Experimental: Optical density was measured at 540 nm. All tests were established in triplicate.

[3] = target: T2, superoxide dismutase (SOD) (Homo sapiens, UniProt P00441); experiment: biochemical; details: read-out: Anti SOD IC50
T2 sequence (P00441 whole entry): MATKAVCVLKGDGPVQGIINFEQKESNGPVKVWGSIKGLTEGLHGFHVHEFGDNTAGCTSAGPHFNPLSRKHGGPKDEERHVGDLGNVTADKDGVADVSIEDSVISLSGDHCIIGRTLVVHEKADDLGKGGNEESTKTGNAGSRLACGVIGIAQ
Experimental: Pyrogallol auto-oxidation due to oxygen in the air can be inhibited by an enzyme that is naturally present in the body: superoxide dismutase (SOD). Furthermore, variations in the pyrogallol auto-oxidation rate in the presence of SOD were evaluated. Tests were carried out in triplicate. The objective was to find an inhibitor of the auto-oxidation of pyrogallol in the presence of a SOD enzyme solution. Samples were tested at a concentration of 50 µg/mL, followed by incubation for 4 min at 25 °C. […] The self-oxidation of pyrogallol was evaluated in the absence of the enzyme. For this, 30 µL of pyrogallol was added to 120 µL of tris buffer (in place of the SOD) (pH 8.5), then followed by the same steps of incubating a positive control (without the molecule); this was performed in the presence of 5% of DMSO to evaluate the percentage of SOD inhibition activity on the auto-oxidation of pyrogallol.

OVCAR-3 cells = experiment: Cytotoxic activity, MTT assay, OVCAR-3; type: cell-based; details: Homo sapiens, OVCAR-3, 72 h, read-out: IC50 OVCAR-3
Experimental: as §1, §2

α-amylase = target: T3, α-amylase (Homo sapiens, UniProt P04746); experiment: Anti-α-amylase activity (starch/DNS); details: for Anti α-Amylase %: at 100 µM
T3 sequence (P04746 16-511): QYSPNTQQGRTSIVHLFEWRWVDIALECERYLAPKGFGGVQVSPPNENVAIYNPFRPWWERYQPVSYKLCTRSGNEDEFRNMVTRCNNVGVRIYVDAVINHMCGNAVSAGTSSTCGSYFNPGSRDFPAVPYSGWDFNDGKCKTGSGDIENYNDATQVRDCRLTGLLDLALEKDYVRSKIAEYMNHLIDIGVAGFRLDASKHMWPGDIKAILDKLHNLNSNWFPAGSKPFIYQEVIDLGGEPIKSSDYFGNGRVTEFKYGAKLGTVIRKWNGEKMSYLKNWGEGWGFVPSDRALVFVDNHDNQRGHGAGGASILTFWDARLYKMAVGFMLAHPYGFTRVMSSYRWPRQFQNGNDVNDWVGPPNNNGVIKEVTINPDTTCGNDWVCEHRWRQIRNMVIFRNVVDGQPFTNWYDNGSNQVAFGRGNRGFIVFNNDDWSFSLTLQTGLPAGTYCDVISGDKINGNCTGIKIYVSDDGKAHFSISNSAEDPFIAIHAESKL
Experimental: The α-amylase inhibitory activity (%) value was defined as the percentage decrease in the maltose production rate over the control. […] After 15 min, this mixture was removed from the water bath and diluted with 900 µL of distilled water. The anti-α-amylase activity was determined by measuring the absorbance at 540 nm. Blank incubations were determined as the absorbance produced by samples where the enzyme was replaced with a buffer solution. […] The IC50 values were calculated from the mean values of the percentage of α--amylase inhibition data, determined in triplicate.

[4] = target: T2, superoxide dismutase (SOD); type: biochemical; details: at 100 µM
[5] = target: T1, acetylcholinesterase (AChE); experiment: biochemical
Experimental: The enzymatic activity was assessed via a modified colorimetric Ellman′s method. First, 50 µL of Tris-HCl buffer (pH 8), 25µL of a buffer solution of the sample (50 µg/mL), and 25 µL of an acetylcholinesterase (AChE) enzyme solution containing 2.8 U/mL were mixed. A reaction was then initiated via the addition of 125 µL of 3 mM […]. After incubation for 15 min at 25 °C, 25 µL of a solution of iodide acetylthiocholine15 mM was added to a 96-well microplate. […] Inhibition (%) was calculated in the following way: Inhibition (%) = [(A control − A sample)/A control] × 100, where (A sample) is the absorbance of the molecule containing the reaction and (A control) is the absorbance of the reaction control. Tests were carried out in triplicate.

SKOV-3 cells = experiment: Cytotoxic activity, MTT assay, SKOV-3; type: cell-based, human
xanthine oxidase (XOD) [6] = target: T4, xanthine oxidase (XOD) (Homo sapiens, UniProt P47989); experiment: biochemical; details: read-out: Anti XOD IC50
T4 sequence (P47989 whole entry, species assumed): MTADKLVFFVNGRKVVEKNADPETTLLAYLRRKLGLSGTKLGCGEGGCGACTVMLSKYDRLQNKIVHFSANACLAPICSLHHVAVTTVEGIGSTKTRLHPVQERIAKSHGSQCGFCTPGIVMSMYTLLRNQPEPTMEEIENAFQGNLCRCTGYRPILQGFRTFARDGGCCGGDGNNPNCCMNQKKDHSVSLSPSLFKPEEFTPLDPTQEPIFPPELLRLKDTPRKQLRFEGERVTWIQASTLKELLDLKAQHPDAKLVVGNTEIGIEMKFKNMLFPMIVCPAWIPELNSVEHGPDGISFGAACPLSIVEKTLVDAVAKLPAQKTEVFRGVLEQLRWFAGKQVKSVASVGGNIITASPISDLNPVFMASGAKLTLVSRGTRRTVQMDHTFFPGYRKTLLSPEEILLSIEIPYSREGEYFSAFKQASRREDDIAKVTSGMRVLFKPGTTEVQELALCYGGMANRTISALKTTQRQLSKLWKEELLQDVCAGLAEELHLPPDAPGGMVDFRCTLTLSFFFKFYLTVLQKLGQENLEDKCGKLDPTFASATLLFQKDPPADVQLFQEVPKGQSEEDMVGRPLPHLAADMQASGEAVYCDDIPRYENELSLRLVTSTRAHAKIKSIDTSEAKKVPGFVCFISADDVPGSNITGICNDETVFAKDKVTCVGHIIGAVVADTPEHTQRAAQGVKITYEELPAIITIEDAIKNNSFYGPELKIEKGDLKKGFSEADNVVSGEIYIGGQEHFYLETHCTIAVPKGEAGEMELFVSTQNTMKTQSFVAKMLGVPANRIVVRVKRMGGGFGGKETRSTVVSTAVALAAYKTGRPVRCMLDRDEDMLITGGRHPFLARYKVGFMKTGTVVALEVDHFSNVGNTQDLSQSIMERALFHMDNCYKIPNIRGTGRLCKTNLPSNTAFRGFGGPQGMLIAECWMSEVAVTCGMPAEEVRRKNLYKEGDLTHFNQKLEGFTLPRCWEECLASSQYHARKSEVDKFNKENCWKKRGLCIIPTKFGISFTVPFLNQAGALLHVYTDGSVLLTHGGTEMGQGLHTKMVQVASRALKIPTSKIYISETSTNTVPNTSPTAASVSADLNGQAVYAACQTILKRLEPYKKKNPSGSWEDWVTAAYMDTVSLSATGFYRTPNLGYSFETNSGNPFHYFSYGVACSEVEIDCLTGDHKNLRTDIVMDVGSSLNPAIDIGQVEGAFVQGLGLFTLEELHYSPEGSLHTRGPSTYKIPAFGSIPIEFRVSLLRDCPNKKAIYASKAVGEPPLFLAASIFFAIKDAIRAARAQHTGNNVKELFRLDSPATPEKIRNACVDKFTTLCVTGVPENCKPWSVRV
Experimental: Anti-xanthine oxidase activity was assayed spectrophotometrically under aerobic conditions. First, 50 µL (50 µg/mL) of samples were added to 60 µL of phosphate buffer (pH 7.5) and 30 µL of xanthine oxidase enzyme solution (0.01 units/mL in phosphate buffer; pH 7.5). After pre-incubation at 25 °C for 15 min, the reaction was initiated by the addition of 60 µL of xanthine substrate solution (prepared in the same buffer). The assay mixture was incubated at 25 °C for 5 min. […] The assay was performed in triplicate. […] Tests were carried out in triplicate.

[7] = ABTS radical cation scavenging assay; details: for ABTS Assay %: at 100 µM
Experimental: ABTS (2,2′-azinobis-3-ethylbenzothiazoline-6-sulfonate) assay
The radical scavenging capacity of antioxidants for the ABTS radical cation was evaluated following this method: ABTS was prepared by adding 7 mM solution of ABTS at pH 7.4 (5 mM NaH2PO4, 5 mM Na2HPO4, and 154 mM NaCl) with 2.5 mM potassium persulfate. The mixture was stored at room temperature for 16 h in the dark before use and prepared […]. Once diluted with persulfate buffer, the absorbance of the mixture yielded an absorbance value of 0.70 ± 0.05 units at 734 nm. Then, 20 µL of each tested sample was mixed with fresh ABTS solution (180 µL), then the absorbance was measured 6 min after the initial mixing. Ascorbic acid was used as a standard. The capacity of free radical scavenging was expressed as a percentage of the inhibition values. The percentage of inhibition is calculated using the same expression employed in the DPPH assay.

xanthine oxidase (XOD) [8] = target: T4, xanthine oxidase (XOD); type: biochemical; details: at 100 µM
[9] = Homo sapiens, SK-OV-3, 72 h, read-out: IC50 SKOV-3, MTT, 72 h

SMILES | IC50 [1] [µM] | IC50 (HCT116 cells) [µM] | Anti ACHE % [2] [%] | IC50 (MCF7 cells) [µM] | IC50 [3] [µM] | IC50 (OVCAR-3 cells) [µM] | IC50 (α-amylase) [µM] | Anti α-Amylase % (α-amylase) [%] | Anti SOD % [4] [%] | IC50 [5] [µM] | IC50 (SKOV-3 cells; [9]) [µM] | IC50 (xanthine oxidase (XOD) [6]) [µM] | IC50 [7] [µM] | Anti XOD % (xanthine oxidase (XOD) [8]) [%] | IC50 ([5]; read-out: Anti ACHE IC50) [µM] | ABTS Assay % [7] [%] | IC50 (SKOV-3 cells; read-out: IC50 SKOV-3, MTT, 72 h) [µM]
CC1OC(OCC2OC(Oc3c(-c4ccc(OCCO)c(OCCO)c4)oc4cc(OCCO)cc(O)c4c3=O)C(O)C(O)C2O)C(O)C(O)C1O (stereo not drawn) [Molecule M6, trihydroxyethylrutin] | > 100 | > 50 | 33.7 ± 3.7 | > 50 | > 50 | > 50 | > 100 | 49.4 ± 5.1 | 53.7 ± 2.1 | > 100 | > 50 | > 100 | 24.5 ± 0.1 | – | – | – | –
COc1ccc(-c2cc(=O)c3c(O)cc(O[C@@H]4O[C@H](CO[C@@H]5O[C@@H](C)[C@H](O)[C@@H](O)[C@H]5O)[C@@H](O)[C@H](O)[C@H]4O)cc3o2)cc1O [Molecule M19, 3′, 5,7-trihydroxy-4′-methoxyflavone 7-rutinoside] | > 100 | > 50 | 37.7 ± 4.6 | > 50 | > 50 | > 50 | 3.7 ± 0.3 | 60.6 ± 4.8 | 57.8 ± 2.4 | > 100 | 40.1 ± 0.9 | > 100 | > 50 | 45.3 ± 3.2 | – | – | –
O=c1cc(-c2cccc(O)c2)oc2c1ccc1ccccc12 [Molecule M10, 3′-hydroxy-a-naphthoflavone] | > 100 | > 50 | 54.7 ± 1.9 | > 50 | > 100 | > 50 | 2.3 ± 0.1 | 69.4 ± 1.6 | 39.4 ± 1.9 | – | > 50 | > 50 | > 100 | 58.8 ± 0.3 | > 50 | 11.0 ± 1.0 | –
COc1cccc(-c2cc(=O)c3c(O)cccc3o2)c1 [Molecule M11, 5-hydroxy-3′-methoxyflavone] | > 100 | > 50 | 52.6 ± 4.2 | > 100 | > 100 | > 50 | 8.3 ± 0.2 | 124.8 ± 15.3 | 9.4 ± 3.1 | – | > 100 | > 100 | > 100 | – | > 50 | 17.7 ± 0.7 | > 50
